# Tested on: dd-strain male mice
# Test: Acute toxicity test (minimum lethal dose, oral)
# Type: in vivo
# Conditions: oral administration, three mice per group, mortality seven days after administration
# Method: Test compounds were orally administered to groups of dd-strain male mice weighing 20 ± 1 g, each group consisting of three mice. Seven days after the administration, minimum lethal dose (MLD) of each compound was determined by observing the mortality.
row,SMILES,MLD [mg/kg]
1,"CCn1c(=O)c2[nH]c(/C=C/c3cccc(OC)c3OC)nc2n(CC)c1=O [Compound 3, (E)-8-(2,3-Dimethoxystyryl)-1,3-diethylxanthine]",> 300
2,"CCn1c(=O)c2[nH]c(/C=C/c3ccc(OC)cc3OC)nc2n(CC)c1=O [Compound 5, (E)-8-(2,4-Dimethoxystyryl)-1,3-diethylxanthine]",> 100
3,"CCn1c(=O)c2[nH]c(/C=C/c3cc(C)c(OC)cc3C)nc2n(CC)c1=O [Compound 11, (E)-1,3-Diethyl-8-(4-methoxy-2,5-dimethylstyryl)xanthine]",> 300
4,"COc1cccc(/C=C/c2nc3c(=O)n(C)c(=O)n(C)c3[nH]2)c1OC [Compound 25, (E)-8-(2,3-Dimethoxystyryl)theophylline]",> 100
5,"COc1cccc(/C=C/c2nc3c(c(=O)n(C)c(=O)n3C)n2C)c1OC [Compound 26, (E)-8-(2,3-Dimethoxystyryl)caffeine]",> 300
6,"COc1ccc(/C=C/c2nc3c([nH]2)c(=O)n(C)c(=O)n3C)c(OC)c1 [Compound 27, (E)-8-(2,4-Dimethoxystyryl)theophylline]",> 100
7,"COc1ccc(/C=C/c2nc3c(c(=O)n(C)c(=O)n3C)n2C)c(OC)c1 [Compound 28, (E)-8-(2,4-Dimethoxystyryl)caffeine]",> 300
8,"COc1cc(C)c(/C=C/c2nc3c([nH]2)c(=O)n(C)c(=O)n3C)cc1C [Compound 29, (E)-8-(4-Methoxy-2,5-dimethylstyryl)theophylline]",> 100
9,"COc1cc(C)c(/C=C/c2nc3c(c(=O)n(C)c(=O)n3C)n2C)cc1C [Compound 30, (E)-8-(4-Methoxy-2,5-dimethylstyryl)caffeine]",> 100
10,"CCn1c(=O)c2[nH]c(/C=C/c3cc(C)ccc3C)nc2n(CC)c1=O [Compound 33, (E)-8-(2,5-Dimethylstyryl)-1,3-diethylxanthine]",> 300
11,"CCOc1ccc(/C=C/c2nc3c([nH]2)c(=O)n(CC)c(=O)n3CC)cc1 [Compound 35, (E)-8-(4-Ethoxystyryl)-1,3-diethylxanthine]",> 100
12,"CCCOc1ccc(/C=C/c2nc3c([nH]2)c(=O)n(CC)c(=O)n3CC)cc1 [Compound 37, (E)-1,3-Diethyl-8-(4-propoxystyryl)xanthine]",> 100
13,"CCn1c(=O)c2[nH]c(/C=C/c3ccccc3OC)nc2n(CC)c1=O [Compound 45, (E)-1,3-Diethyl-8-(2-methoxystyryl)xanthine]",> 100
14,"CCn1c(=O)c2c(nc(/C=C/c3ccccc3OC)n2C)n(CC)c1=O [Compound 46, (E)-1,3-Diethyl-8-(2-methoxystyryl)-7-methylxanthine]",> 100
15,"CCn1c(=O)c2[nH]c(/C=C/c3ccc(OC)c(OC)c3Cl)nc2n(CC)c1=O [Compound 49, (E)-8-(2-Chloro-3,4-dimethoxystyryl)-1,3-diethylxanthine]",> 100
16,"COc1ccc(/C=C/c2nc3c([nH]2)c(=O)n(C)c(=O)n3C)c(Cl)c1OC [Compound 51, (E)-8-(2-Chloro-3,4-dimethoxystyryl)theophylline]",> 100
17,"CCn1c(=O)c2[nH]c(/C=C/c3ccc(F)c(F)c3)nc2n(CC)c1=O [Compound 53, (E)-8-(3,4-Difluorostyryl)-1,3-diethylxanthine]",> 300
18,"COc1ccc(/C=C/c2nc3c([nH]2)c(=O)n(C)c(=O)n3C)cc1Br [Compound 57, (E)-8-(3-Bromo-4-methoxystyryl)theophylline]",> 100
19,"CCn1c(=O)c2[nH]c(/C=C/c3cc(OC)c(OC)cc3Br)nc2n(CC)c1=O [Compound 59, (E)-8-(2-Bromo-4,5-dimethoxystyryl)-1,3-diethylxanthine]",> 100

row,SMILES,MLD [mg/kg]
1,"CCn1c(=O)c2[nH]c(/C=C/c3cc(OC)c(OC)cc3[N+](=O)[O-])nc2n(CC)c1=O [Compound 61, (E)-8-(4,5-Dimethoxy-2-nitrostyryl)-1,3-diethylxanthine]",> 100
2,"CCn1c(=O)c2c(nc(/C=C/c3cc(OC)c(OC)cc3[N+](=O)[O-])n2C)n(CC)c1=O [Compound 62, (E)-8-(4,5-Dimethoxy-2-nitrostyryl)-1,3-diethyl-7-methylxanthine]",> 300
3,"CCn1c(=O)c2[nH]c(/C=C/c3cccc(Cl)c3)nc2n(CC)c1=O [Compound 69, (E)-8-(3-Chlorostyryl)-1,3-diethylxanthine]",> 100
4,"CCn1c(=O)c2[nH]c(/C(C)=C/c3ccccc3)nc2n(CC)c1=O [Compound 71, (E)-1,3-Diethyl-8-(α-methylstyryl)xanthine]",> 100
5,"CCn1c(=O)c2c(nc(/C(C)=C/c3ccccc3)n2C)n(CC)c1=O [Compound 72, (E)-1,3-Diethyl-7-methyl-8-(α-methylstyryl)xanthine]",> 300
6,"CCn1c(=O)c2[nH]c(/C=C/c3ccc(C(F)(F)F)cc3)nc2n(CC)c1=O [Compound 73, (E)-1,3-Diethyl-8-(4-trifluoromethylstyryl)xanthine]",> 100
7,"CCn1c(=O)c2[nH]c(/C(F)=C\c3ccccc3)nc2n(CC)c1=O [Compound 75, (E)-1,3-Diethyl-8-(α-fluorostyryl)xanthine]",> 100
8,"CCn1c(=O)c2[nH]c(/C=C/c3cc(C(F)(F)F)cc(C(F)(F)F)c3)nc2n(CC)c1=O [Compound 85, (E)-8-[3,5-Bis(trifluoromethyl)styryl]-1,3-diethylxanthine]",> 100
9,"CCn1c(=O)c2c(nc(/C=C/c3cc(F)cc(F)c3)n2C)n(CC)c1=O [Compound 88, (E)-8-(3,5-Difluorostyryl)-1,3-diethyl-7-methylxanthine]",> 100
10,"CCn1c(=O)c2[nH]c(/C=C/c3ccc(-c4ccccc4)cc3)nc2n(CC)c1=O [Compound 100, (E)-1,3-Diethyl-8-(4-phenylstyryl)xanthine]",> 100
11,"CCn1c(=O)c2[nH]c(/C=C/c3ccc(F)c(Cl)c3)nc2n(CC)c1=O [Compound 104, (E)-8-(3-Chloro-4-fluorostyryl)-1,3-diethylxanthine]",> 100
12,"CCn1c(=O)c2c(nc(/C=C/c3ccc(OC)c(O)c3)n2C)n(CC)c1=O [Compound 111, (E)-1,3-Diethyl-8-(3-hydroxy-4-methoxystyryl)-7-methylxanthine]",> 100
13,"CCn1c(=O)c2c(nc(/C=C/c3ccc(OCCCCN)cc3)n2C)n(CC)c1=O [Compound 116, (E)-8-[4-(4-Aminobutoxy)styryl]-1,3-diethyl-7-methylxanthine]",> 100
14,"CCOC(=O)COc1ccc(/C=C/c2nc3c(c(=O)n(CC)c(=O)n3CC)n2C)cc1 [Compound 117, (E)-8-(4-Ethoxycarbonylmethoxystyryl)-1,3-diethyl-7-methylxanthine]",> 100
15,"CCn1c(=O)c2c(nc(/C=C/c3ccc(OCC(=O)O)cc3)n2C)n(CC)c1=O [Compound 118, (E)-8-(4-Carboxymethoxystyryl)-1,3-diethyl-7-methylxanthine]",> 100
16,"CCn1c(=O)c2[nH]c(/C=C/c3cccc(Oc4ccccc4)c3)nc2n(CC)c1=O [Compound 119, (E)-1,3-Diethyl-8-(3-phenoxystyryl)xanthine]",> 100
17,"CCn1c(=O)c2[nH]c(/C=C/c3ccc(O)cc3)nc2n(CC)c1=O [Compound 121, (E)-1,3-Diethyl-8-(4-hydroxystyryl)xanthine]",> 100
18,"CCn1c(=O)c2c(nc(/C=C/c3ccc(O)c(C)c3C)n2C)n(CC)c1=O [Compound 122, (E)-1,3-Diethyl-8-(4-hydroxy-2,3-dimethylstyryl)-7-methylxanthine]",> 100

# Molecular target: T1, A₂ receptor (Rattus norvegicus, UniProt P30543)
# T1 construct: from tissue; host or cells: rat corpus striatum membrane preparation
# Test: Adenosine A₂ receptor binding test (³H-NECA binding)
# Conditions: 10⁻⁴M; ³H-NECA binding, rat corpus striatum; read-out: Inhibition (%) A₂ Receptor
# Method: The similar procedure as in the above-described adenosine A₁ receptor binding test was repeated using rat corpus striatum to obtain the final precipitate of the tissue thereof. The precipitate was suspended in 50 mM Tris HCl buffer containing 10 mM magnesium chloride and 0.02 unit/mg tissue of adenosine deaminase (manufactured by Sigma Co.) to give a tissue concentration of 5 mg (wet weight)/ml.
# The mixture solution was allowed to stand at 25°C for 120 minutes and then treated in the same manner as in the adenosine A₁ receptor binding test to determine the radioactivity bound to the A₂ receptors.
# The inhibition rate of the test compound against the binding of A₂ receptor (³H-NECA binding) was calculated by the following equation: [formula] [Notes] • 1.
# T1 sequence (P30543 whole entry): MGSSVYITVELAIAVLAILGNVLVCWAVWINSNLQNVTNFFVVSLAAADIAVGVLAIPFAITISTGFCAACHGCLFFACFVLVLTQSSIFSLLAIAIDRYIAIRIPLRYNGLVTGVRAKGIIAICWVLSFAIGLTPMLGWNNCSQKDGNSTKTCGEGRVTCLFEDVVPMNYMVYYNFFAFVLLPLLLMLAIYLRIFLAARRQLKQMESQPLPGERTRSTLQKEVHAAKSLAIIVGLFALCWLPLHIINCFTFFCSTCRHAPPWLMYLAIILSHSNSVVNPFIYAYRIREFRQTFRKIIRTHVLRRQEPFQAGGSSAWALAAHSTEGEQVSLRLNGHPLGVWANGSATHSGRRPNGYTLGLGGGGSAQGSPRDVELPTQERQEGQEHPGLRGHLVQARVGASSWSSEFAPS
row,SMILES,inhibition at 100 µM [%]
1,"COc1cccc(/C=C/c2nc3c(=O)n(C)c(=O)n(C)c3[nH]2)c1OC [Compound 25, (E)-8-(2,3-Dimethoxystyryl)theophylline]",70
2,"COc1cccc(/C=C/c2nc3c(c(=O)n(C)c(=O)n3C)n2C)c1OC [Compound 26, (E)-8-(2,3-Dimethoxystyryl)caffeine]",79
3,"COc1ccc(/C=C/c2nc3c([nH]2)c(=O)n(C)c(=O)n3C)c(OC)c1 [Compound 27, (E)-8-(2,4-Dimethoxystyryl)theophylline]",90
4,"COc1ccc(/C=C/c2nc3c(c(=O)n(C)c(=O)n3C)n2C)c(OC)c1 [Compound 28, (E)-8-(2,4-Dimethoxystyryl)caffeine]",99
5,"CCn1c(=O)c2[nH]c(/C=C/c3cc(C)ccc3C)nc2n(CC)c1=O [Compound 33, (E)-8-(2,5-Dimethylstyryl)-1,3-diethylxanthine]",92
6,"CCn1c(=O)c2[nH]c(/C=C/c3ccc(OC)c(OC)c3Cl)nc2n(CC)c1=O [Compound 49, (E)-8-(2-Chloro-3,4-dimethoxystyryl)-1,3-diethylxanthine]",112
7,"COc1ccc(/C=C/c2nc3c([nH]2)c(=O)n(C)c(=O)n3C)c(Cl)c1OC [Compound 51, (E)-8-(2-Chloro-3,4-dimethoxystyryl)theophylline]",91

# Same assay, conditions: 10⁻⁵M; ³H-NECA binding, rat corpus striatum; read-out: Inhibition (%) A₂ Receptor
row,SMILES,inhibition at 10 µM [%]
1,"COc1cccc(/C=C/c2nc3c(=O)n(C)c(=O)n(C)c3[nH]2)c1OC [Compound 25, (E)-8-(2,3-Dimethoxystyryl)theophylline]",76
2,"COc1cccc(/C=C/c2nc3c(c(=O)n(C)c(=O)n3C)n2C)c1OC [Compound 26, (E)-8-(2,3-Dimethoxystyryl)caffeine]",75
3,"COc1ccc(/C=C/c2nc3c([nH]2)c(=O)n(C)c(=O)n3C)c(OC)c1 [Compound 27, (E)-8-(2,4-Dimethoxystyryl)theophylline]",89
4,"COc1ccc(/C=C/c2nc3c(c(=O)n(C)c(=O)n3C)n2C)c(OC)c1 [Compound 28, (E)-8-(2,4-Dimethoxystyryl)caffeine]",86
5,"CCn1c(=O)c2[nH]c(/C=C/c3cc(C)ccc3C)nc2n(CC)c1=O [Compound 33, (E)-8-(2,5-Dimethylstyryl)-1,3-diethylxanthine]",93
6,"CCn1c(=O)c2[nH]c(/C=C/c3ccc(OC)c(OC)c3Cl)nc2n(CC)c1=O [Compound 49, (E)-8-(2-Chloro-3,4-dimethoxystyryl)-1,3-diethylxanthine]",108
7,"COc1ccc(/C=C/c2nc3c([nH]2)c(=O)n(C)c(=O)n3C)c(Cl)c1OC [Compound 51, (E)-8-(2-Chloro-3,4-dimethoxystyryl)theophylline]",88

# Same assay, conditions: 10⁻⁶M; ³H-NECA binding, rat corpus striatum; read-out: Inhibition (%) A₂ Receptor
row,SMILES,inhibition at 1 µM [%]
1,"COc1cccc(/C=C/c2nc3c(c(=O)n(C)c(=O)n3C)n2C)c1OC [Compound 26, (E)-8-(2,3-Dimethoxystyryl)caffeine]",59
2,"COc1ccc(/C=C/c2nc3c(c(=O)n(C)c(=O)n3C)n2C)c(OC)c1 [Compound 28, (E)-8-(2,4-Dimethoxystyryl)caffeine]",80
3,"CCOc1ccc(/C=C/c2nc3c([nH]2)c(=O)n(CC)c(=O)n3CC)cc1 [Compound 35, (E)-8-(4-Ethoxystyryl)-1,3-diethylxanthine]",71
4,"CCCOc1ccc(/C=C/c2nc3c([nH]2)c(=O)n(CC)c(=O)n3CC)cc1 [Compound 37, (E)-1,3-Diethyl-8-(4-propoxystyryl)xanthine]",60
5,"CCn1c(=O)c2[nH]c(/C=C/c3ccc(OC)c(OC)c3Cl)nc2n(CC)c1=O [Compound 49, (E)-8-(2-Chloro-3,4-dimethoxystyryl)-1,3-diethylxanthine]",76

# Same assay, conditions: 10⁻⁷M; ³H-NECA binding, rat corpus striatum; read-out: Inhibition (%) A₂ Receptor
row,SMILES,inhibition at 0.1 µM [%]
1,"COc1cccc(/C=C/c2nc3c(c(=O)n(C)c(=O)n3C)n2C)c1OC [Compound 26, (E)-8-(2,3-Dimethoxystyryl)caffeine]",27
2,"COc1ccc(/C=C/c2nc3c(c(=O)n(C)c(=O)n3C)n2C)c(OC)c1 [Compound 28, (E)-8-(2,4-Dimethoxystyryl)caffeine]",46
3,"CCOc1ccc(/C=C/c2nc3c([nH]2)c(=O)n(CC)c(=O)n3CC)cc1 [Compound 35, (E)-8-(4-Ethoxystyryl)-1,3-diethylxanthine]",54
4,"CCCOc1ccc(/C=C/c2nc3c([nH]2)c(=O)n(CC)c(=O)n3CC)cc1 [Compound 37, (E)-1,3-Diethyl-8-(4-propoxystyryl)xanthine]",56
5,"CCn1c(=O)c2[nH]c(/C=C/c3ccc(OC)c(OC)c3Cl)nc2n(CC)c1=O [Compound 49, (E)-8-(2-Chloro-3,4-dimethoxystyryl)-1,3-diethylxanthine]",73
